Experimental findings from ChEMBL document CHEMBL1123983, “Bis(4-hydroxyphenyl)[2-(phenoxysulfonyl)phenyl]methane: isolation and structure elucidation of a novel estrogen from commercial preparations of phenol red (phenolsulfonphthalein)” (J Med Chem, 1988) are described below.

The target of this experiment is Estrogen receptor (Homo sapiens) (UniProt Q92731+P03372). Put plainly: Estrogen-related induction of progesterone receptor expression in MCF-7 cells at 10e-6 M. Format: cell-based. The settings on record: MCF7.

`O=S(=O)(Oc1ccccc1)c1ccccc1C(c1ccc(O)cc1)c1ccc(O)cc1` had a PR level, % of control of 1680%.
